Data as given in patent US9763444B2, “Compositions and methods for repelling blood-sucking and biting insects, ticks and mites” (The United States of America, as represented by the …, priority 2013, dated 2017).

Columns and labels:
[1] = test system: Ae. aegypti; experiment: Complete Protection Time test on treated cloth (duration of protection); format: in vivo, Aedes aegypti; details: Dosage 0.75 mg/cm^2 on cloth; for Duration of protection against Ae. aegypti, M-3 Days Protection: subject M-3
Description: Bioassay for mosquito repellent activity: Repellency screening test for experimental chemicals were carried out to identify candidates that might be useful repellents. The repellent efficacy was compared to that of the standard repellent, DEET. Experimental compounds were assessed in one of two ways: (1) a range of concentration was evaluated to determine the minimum effective dosage (MED) which was the concentration threshold of where the repellent began to fail and allowed bites, or (2) a predetermined concentration of each repellent was applied to cloth and the activity was evaluated over several days (or in some cases months) (Katritzky, A. R., et al., Proc. Nat. Acad. Sci. (US), 105, 7359-7364 (2008); Katritzky, A. R., et al., Journal of Med. Entomol., 47: 924-938 (2010)). When conducting assays for repellency, a failure point was also predetermined for those measurements. Since experiments described herein used about 500 female mosquitoes per test, the failure point was set at 1% (equal to 5 bites) received during a test interval. From 3 to 5 volunteers participated in the screening of each set of chemicals. Complete Protection Time Test: Complete protection time (CPT) on treated cloth is a method of screening that is used to determine the repellent duration for experimental chemicals that have not been examined for safe use on humans. The standard repellent DEET was used as a positive control as a benchmark by which to compare the repellents. Experimental compounds were prepared in solution by combining 0.075 g of experimental chemical with 1 mL of acetone in a 7.1-mL screwtop glass vial. The same concentration level of DEET was also prepared in this way to serve as a control and a comparison for relative repellency. A 50 cm^2 (5 cm×10 cm) patch of muslin cloth was rolled lengthwise and placed into each of the glass vials and sealed with a screwtop so it soaked up the solution. Just prior to the experiment, the pieces of treated cloth were removed from the vials, affixed to card stock tabs (5 cm×3 cm) with staples, and hung with masking tape on a rack to dry and allowed the volatile acetone to evaporate. Similar to the MED tests, volunteers wore a latex glove over their hands, a nylon stocking over their arm, and then wrapped a plastic Velcro-sealed sleeve over their entire forearm with a 32 cm^2 (4 cm×8 cm) window cut-out to allow mosquitoes to bite through. Dried cloth patches were stretched across the window in the plastic sleeve and held in place with masking tape. Volunteers placed their sleeve-covered arms into a screened cage for a one minute period with approximately 500 female Ae. aegypti mosquitoes that had been preselected for host-seeking behavior using a draw box. A cloth patch that received a 1% bite through level, equal to 5 mosquitoes that bit out of 500 mosquitoes, was considered a failure at that concentration. If 0-4 bites were received, then the treated cloth was still considered to be repellent at that concentration. The duration was recorded as the number of days an experimental chemical received a passing result, with day 0 being the day the sample was first dried. […] As with the tests conducted to determine CPT, volunteers in the study provided informed consent (IRB protocol #636-2005). The protocol was approved by the University of Florida Human Use Institutional Review Board.

[2] = test system: Ae. aegypti; experiment: Minimum Effective Dosage (MED) test on treated cloth, mosquito repellency; format: in vivo, Aedes aegypti; details: for Ae. aegypti Minimum Effective Dosage, F1 / Ae. aegypti Minimum Effective Dosage, M1 / Ae. aegypti Minimum Effective Dosage, M2 / Ae. aegypti Minimum Effective Dosage, Average: Table 2; for Ae. aegypti Minimum Effective Dosage, F1: human subject F1; for Ae. aegypti Minimum Effective Dosage, F1 / Ae. aegypti Minimum Effective Dosage, M1 / Ae. aegypti Minimum Effective Dosage, M2: highest concentration 1.500 mg/cm^2; for Ae. aegypti Minimum Effective Dosage, M1: human subject M1; for Ae. aegypti Minimum Effective Dosage, M2: human subject M2; for Ae. aegypti Minimum Effective Dosage, Average: mean of 3 volunteers
Description: Bioassay for mosquito repellent activity: Repellency screening test for experimental chemicals were carried out to identify candidates that might be useful repellents. The repellent efficacy was compared to that of the standard repellent, DEET. Experimental compounds were assessed in one of two ways: (1) a range of concentration was evaluated to determine the minimum effective dosage (MED) which was the concentration threshold of where the repellent began to fail and allowed bites, or (2) a predetermined concentration of each repellent was applied to cloth and the activity was evaluated over several days (or in some cases months) (Katritzky, A. R., et al., Proc. Nat. Acad. Sci. (US), 105, 7359-7364 (2008); Katritzky, A. R., et al., Journal of Med. Entomol., 47: 924-938 (2010)). When conducting assays for repellency, a failure point was also predetermined for those measurements. Since experiments described herein used about 500 female mosquitoes per test, the failure point was set at 1% (equal to 5 bites) received during a test interval. From 3 to 5 volunteers participated in the screening of each set of chemicals.
Minimum Effective Dosage (MED) Test: The MED bioassays on treated cloth were a method of screening to determine the minimum amount of a repellent needed to prevent bites. Experimental compounds were prepared in solution by combining 0.15 g of experimental chemical with 2 mL of acetone in a 7.1 mL screwtop glass vial. This solution was then serially diluted to obtain nine concentrations when applied on to the cloth patch: 1.5, 0.75, 0.375, 0.187, 0.094, 0.047, 0.023, 0.011, and 0.006 mg/cm^2. The standard N,N-diethyl-3-methylbenzamide (DEET) was also tested at the same concentration levels to serve as a control and a comparison for relative repellency. A 50 cm^2 (5 cm×10 cm) patch of muslin cloth was rolled lengthwise and placed into each of the glass vials and scaled with a screwtop so it soaked up the solution. Just prior to the experiment, the pieces of treated cloth were removed from the vials, affixed to card stock tabs (5 cm×3 cm) with staples, and hung with masking tape on a rack to dry and allow acetone to evaporate. Volunteers wore a latex glove over their hands, a nylon stocking over their arm, and then wrapped a plastic Velcro-sealed sleeve over their entire forearm with a 32 cm^2 (4 cm×8 cm) window cut-out to allow mosquitoes to bite through. The nylon stocking acted as a barrier between the dried cloth and the skin, an additional precaution with experimental compounds. Dried cloth patches were stretched across the window in the plastic sleeve and held in place with masking tape. Volunteers placed their sleeve-covered arms into a screened cage for a one minute period with approximately 500 female Ae. aegypti mosquitoes that had been preselected for host-seeking behavior using a draw box (Posey, K. H., and C. E. Schreck, Mosquito News, 41: 566-568 (1981)). […] The MED recorded was the lowest passing concentration level tested for the experimental compound. […] All human volunteers in the study provided informed consent to participate of a protocol approved by the University of Florida Human Use Institutional Review Board (IRB #636-2005).

Row | SMILES | Duration of protection, Proportion to DEET [1] | Duration of protection against Ae. aegypti, M-3 Days Protection [1] [days] | Ae. aegypti Minimum Effective Dosage, F1 [2] [mg/cm^2] | Ae. aegypti Minimum Effective Dosage, M1 [2] [mg/cm^2] | Ae. aegypti Minimum Effective Dosage, M2 [2] [mg/cm^2] | Ae. aegypti Minimum Effective Dosage, Average [2] [mg/cm^2] | mosquito repellent activity against Ae. aegypti (in words) ([2]; MED test on treated cloth)
1 | CC1(C)C=Cc2cc(CCO)ccc2O1 [Compound 9] | 0.50 | 1 | 0.375 | 0.375 | 0.375 | 0.375 | –
2 | CC1(C)C=Cc2c(C(=O)O)ccc(Cl)c2O1 [Compound 13, 8-chloro-2,2-dimethyl-2H-chromene-5-carboxylic acid] | 0.50 | 1 | >1.500 | >1.500 | >1.500 | – | –
3 | CC1(C)C=Cc2c(CO)ccc(Cl)c2O1 [Compound 11, (8-chloro-2,2-dimethyl-2H-chromen-5-yl)methanol] | 1.00 | – | 0.011 | 0.011 | 0.011 | 0.011 | act as mosquito repellents
